{"source": "patent US4228156A", "about": "“Synthetic peptides having pituitary growth hormone releasing activity” (Beckman Instruments, Inc., priority 1979, dated 1980)", "test_system": "pituitaries removed from 20 day old female rats", "test": "In vitro growth hormone release study (incubated rat pituitaries, GH radioimmunoassay of the medium)", "assay_type": "cell-based, rats (CD-1 strain)", "conditions": "two pituitaries in 1 ml lactated Ringer's, 36° C., ± SEM", "experimental": "Female rats of the CD-1 strain were housed in a constant temperature room at 24° C. with 14 hours light and 10 hours darkness. The rats were fed Purina brand rat chow ab libitum. All studies were started between 0800 and 1000 hours. Pituitaries were removed from 20 day old female rats. Two pituitaries were incubated at 36° C. in 1 ml of lactated Ringer's solution in 10 ml polytetrafluoroethylene beakers in a Dubnoff Shaker (90 cycles/min.). The pituitaries were incubated a total of 4 hours (P1, P2, I3, and I4). After two successive one hour preincubation periods (P1, P2), the peptide was added to the incubation medium hourly for 2 hours (I3, I4). This in vitro study was performed in triplicate and a standard radioimmunoassay of growth hormone present in the incubation medium was performed in duplicate. The hormonal activity was calculated as the difference (Δ) of growth hormone (GH) levels between I3, I4 and P2, i.e., (I3 -P2) and (I4 -P2). P values were calculated by Students' t test using six growth hormone values for each value recorded. The growth hormone radioimmunoassay reagents were distributed by the National Institute of Arthritis and Metabolite Disease Division (NIAMDD) program. The growth hormone values were calculated in terms of nanograms (ng) of a rat standard with a growth hormone potency of 0.61 units/mg.", "note": "Non-standard residues stand in square brackets, D forms with d. Residues, ends and D or L forms follow the SMILES beside them."}
{"compound": "NC(=O)[C@H](Cc1ccccc1)NC(=O)[C@@H](Cc1c[nH]c2ccccc12)NC(=O)[C@H](N)Cc1c[nH]c2ccccc12", "note": "[H2 N--D-Trp--D-Trp--Phe--CONH2, H2 N-D-Trp-D-Trp-Phe-CONH2] (H-[dW]-[dW]-Phe-NH2)", "values": [{"measurement": "In vitro growth hormone release (ΔGH, I3-P2 and I4-P2)", "setting": "0.3μg peptide, P Value ~0.02", "value": "592 ± 237 ng.increment.GH/ml incubation"}, {"measurement": "In vitro growth hormone release (ΔGH, I3-P2 and I4-P2)", "setting": "1μg peptide, P Value <0.001", "value": "943 ± 137 ng.increment.GH/ml incubation"}, {"measurement": "In vitro growth hormone release (ΔGH, I3-P2 and I4-P2)", "setting": "10μg peptide, P Value <0.001", "value": "1263 ± 293 ng.increment.GH/ml incubation"}, {"measurement": "In vitro growth hormone release (ΔGH, I3-P2 and I4-P2)", "setting": "100μg peptide, P Value <0.01", "value": "635 ± 165 ng.increment.GH/ml incubation"}]}
